Measured values: patent US20230340012A1, “NATURAL AND SYNTHETIC COMPOUNDS FOR TREATING CANCER AND OTHER DISEASES” (PACIFIC ARROW LIMITED, priority 2009, published 2023)

How the values were obtained:
Jurkat cells = test: Agonist activity of anti-DR5 antibody with Tig-R in Jurkat cells, MTT; assay type: cell-based, human
Experimental: Experiment 44: Agonist activity of […] anti-DR5 antibody with Tig-R in Jurkat cells Jurkat cells (Human Acute T-cell leukemia) were cultured in RPMI1640 medium with 10% FBS, antibiotics (Pen Strep) and L-Glutamine in a 37C, 5% CO2 incubator. Cells in log-growth phase (about 0.5 million cells per ml) were treated with antibody (AB) or/and Tig-R. The antibody is Human TRAIL R2/TNFRSF 10B Antibody from R&D (MAB631-100). Treatment time is 2 days. Inhibition of cell growth after treatment was determined by MTT assay.
Conditions for combination studies: Tig-R (2.5 ug/ml) was added together with AB (2-8 ng/ml). Cells

[1] = system: DR5 (TNFRSF10B) in CAPAN cells; test: DR5 Western blot, CAPAN cells; assay type: cell-based, human; conditions: Tig-R 10 ug/ml, 2 days
Experimental: A. Cells and drug-treatment: HepG2 cells (liver cancer cells), CAPAN cells, ES2 cells (Ovary cell) were cultured in DMEM medium with 10% FBS, antibiotics (Pen Strep) and L-Glutamine in a 37° C., 5% CO2 incubator. Cells in log-growth phase were treated with Tig-R (10 ug/ml), Tig-S (4 ug/ml) or DMSO (as control) for 2 days.
B. Total cell protein extraction: Drug-treated cells were collected, pelleted with centrifugation. The cell pellet was extracted with SDS-Sample buffer (containing PMSF and protease inhibitors cocktail). About 0.1 gram cell pellet was extracted in 1 ml of extraction buffer. The cell extract was then incubated in boiling water bath for 6 minutes with occasionally vortexing. The protein extract was immediately frozen in -80° C. before used.
C. SDS gel electrophoresis: 10-20 ug of protein sample was loaded into each lane of a 10% SDS gel. Electrophoresis was conducted with 100 volt constant for 2 hours.
D. Western Blot: Separated proteins from SDS gel were transferred to a nitrocellulose membrane, which was blocked with 5% non-fat dry milk. The membrane was then exposed to 1st antibody (anti-TNFRSF10B) over night, then washed. The membrane was then incubated in 2nd antibody (anti-mouse-AP conjugated) for an hour, then washed. The immuno-bands were developed with BCIP/NBT substrate.
E. Another SDS gel with same sample loading was stained with Coomassie Brilliant Blue (CBB) for protein staining.
F. Determination of Western blot band intensity: The band-images of Western blot were captured with a digital camera and the intensity of bands was determined using “Image J” software.

Swiss3T3 cells = test: MTT cytotoxicity, Swiss3T3 mouse normal fibroblast; assay type: cell-based; conditions: preliminary results
Experimental: Swiss3T3 cells are mouse normal fibroblast which were used in this experiment to compare with ES2 (human ovarian cancer) in Tig-R cytotoxicity determination.
MTT Assay. The procedure for MTT assay followed the method described by Carmichael et al. (1987) with modifications. The cells were seeded into a 96-well plate at for 24 hours before drug-treatment. The cells were then exposed to the drugs for 48, 72, or 96 hours. After the drug-treatment, MTT (0.5 mg/mL) was added to cultures and incubated for an hour. The formazan (product of the reduction of tetrazolium by viable cells) formed and was dissolved with DMSO and the O.D. at 490 nm, and was measured by an ELISA reader. The MTT level of the cells before drug-treatment was also measured (T0). The % cell-growth (%G) is calculated as: %G = (TD-T0 / TC-T0) x 100(1), where TC or TD represents O.D. readings of control or drug-treated cells. When T0 > TD, then the cytotoxicity (LC) expressed as % of the control is calculated as: %LC = (TD-T0 / T0) × 100(2).

[2] = system: DR5 (TNFRSF10B) in ES2 cells; test: Induction of DR5 in ES2 cells, Western blot; assay type: cell-based, human; conditions: experiment 1, column head R 7.5, 2 days
[3] = system: Human leukemia cells K562; test: Apoptosis in K562 cells, Annexin V / propidium iodide flow cytometry; assay type: cell-based; conditions: for apoptotic cells population: two days, background 10-15%
Experimental: • 1. Cells: Human leukemia cells K562 cultured in RPMI1640 medium. • 2. Drug: Tig-S (1000x stock solution in DMSO). • 3. Start cells concentration: 500000/ml. • 4. Cells were cultured with drug (0 - 20 ug/ml) for Two days. • 5. Collect cells from culture (1 - 4 million) by centrifugation (136xg for 5 min. remove supernatant). • 6. Wash cells with 1 ml of cold PBS, collect cells by centrifugation (136xg, 5 min, remove supernatant). • 7. Re-suspend cells in 200 ul Binding buffer (10 mM HEPES, 140 mM NaCl, 2.5 mM CaCl2, pH 7.4). • 8. Stained cells by adding 10 ul Annexin V (Alexa Fluor 488, Invitrogen cat# A13201), and 2 ul Propidium iodide (1 mg/ml in water) to cell suspension. Mix. • 9. Sit at Room temperature for 15 min. • 10. Wash cells with 1 ml binding buffer. Collect cells by centrifugation. • 11. Re-suspend cells with in 1 ml of binding buffer for analysis by flow cytometry. • 12. Flow Cytometry analysis was performed in Baylor Core Facility with a LSRII instrument. • 13. Analysis: Control cells stained with PI or Annexin V-488 (Annexin V-FITC) alone were served as references. About 50000 cells were analyzed for each sample. • 14.Cell distribution in following groups: live, early apoptosis, late-apoptosis, total apoptosis and dead cells were determined. • 15.

Compound	combined effect with anti-DR5 antibody (Jurkat cells; Jurkat, Tig-R 2.5 ug/ml)	increase of inhibition with Tig-R (Jurkat cells; Tig-R 2.5 ug/ml added to antibody)	inhibition of cell growth (Jurkat cells; Tig-R 2.5 ug/ml alone, 2 days) [%]	DR5 Western blot band intensity (Image J) ([1]; CAPAN cells)	DR5 band intensity, % of DMSO ([1]; CAPAN cells) [%]	increase of DR5 over DMSO control cells ([1]; CAPAN) [%]	IC50 in SW3T3 cells (Swiss3T3 cells)	DR5 Western blot band intensity (Image J) [2]	DR5 band intensity, % of DMSO [2] [%]	apoptotic cells population ([3]; 2.5 ug/ml) [%]	apoptotic cells population ([3]; 20 ug/ml) [%]	mechanism of cell death ([3]; K562)
24,28-O-Tigloyl-3β,16α, 21β, 22a, 24β, 28-hexahydroxyolean-12-ene [Tig-R]	synergistic	about 20%	8	29128	151	51	above 20 ug/ml	29902	157	–	–	–
CC=C(C)C(=O)OCC1(C)C(O)CCC2(C)C1CCC1(C)C2CC=C2C3CC(C)(C)C(OC(=O)C(C)=CC)C(O)C3(CO)C(O)CC21C (stereo not drawn) [Tig-S]	–	–	–	–	–	–	–	–	–	15	27	induces cell-death by the apoptosis mechanism
